Measurements taken from patent US20150259331A1, “PROTOZOAN PARASITE GROWTH INHIBITORS” (Northeastern University, priority 2014, published 2015).
pEC50: −log10 of the molar value. Read-outs that look alike come from different tables or passages of the source. Each block holds one compound with its values, some of them ahead of it.

Experiments:
[1] = test system: endocytosis of transferrin; assay: Receptor-mediated endocytosis of transferrin in the trypanosome; format: cell-based, T. brucei
HepG2 cells = assay: HepG2 cell toxicity (MTT) assay; format: cell-based; conditions: Table 13; read-out: HepG2 TC50
[2] = test system: T. brucei brucei Lister 427; assay: Trypanosome replication assay; format: cell-based, Trypanosoma brucei brucei; conditions: for pEC50: concentration giving 50% inhibition of growth of T brucei brucei Lister 427 cells, 48 h, values ±7%, read-out: Tbb EC50; for inhibition at 5 µM: read-out: Tbb % inh at 5 μM
[3] = not given; remark: listed apart in the source
L. major amastigote = L. major amastigote assay; format: cell-based
T. cruzi = T. cruzi growth inhibition; format: cell-based, Trypanosoma cruzi
L. major promastigote = L. major promastigote assay; format: cell-based
P. fal = P. fal assay of Table 13 (strain not given); format: cell-based, P. falciparum
[4] = Human liver microsomes CLint
[5] = Protein binding (Table 14); conditions: plasma
[6] = Thermodynamic aqueous solubility; format: physicochemical
[7] = Male rat hepatocytes CLint
logD = format: physicochemical
[8] = HepG2 cell toxicity (MTT) assay; format: cell-based; conditions: human, HepG2 cells; Table 13; read-out: HepG2 TC50
[9] = test system: T. brucei brucei Lister 427; conditions: published activities of HAT treatments and SCYX-7158; read-out: Tbb EC50; cited from earlier work
in vitro = conditions: male, BALB/c, mouse
Description: Mice plasma (BALB/c mice, male—pool of 3 animals) was collected in-house using K2EDTA as anticoagulant. […] Glipizide (Cat #50402G) was purchased from Apin chemicals, Abingdon, Oxon. Albendazole (Cat #A4673) was purchased from Sigma. Phosphate buffered saline pH 7.4 (0.1 M sodium phosphate and 0.15 M sodium chloride) and RED device inserts were procured from Thermo Scientific, Meridian Rd., Rockford, Ill.
Further 1 mM stock was diluted 200-fold in mice plasma to prepare a concentration of 5 μM. The final DMSO concentration in plasma was 0.5%.
Rapid equilibrium dialysis was performed with a rapid equilibrium dialysis (RED) device containing dialysis membrane with a molecular weight cut-off of 8,000 Daltons. Each dialysis insert contains two chambers. The red chamber is for plasma while the white chamber is for buffer. A 200 μL aliquot of warfarin or test compound at 5 μM (triplicates) was separately added to the plasma chamber and 350 μL of phosphate buffer saline (pH 7.4) was added to the buffer chamber of the inserts. After sealing the RED device with an adhesive film, dialysis was performed at 37° C. with shaking at 100 rpm for 4 hours as per manufacturer's recommendation.
Recovery and stability: A 50 μL aliquot of warfarin or test compound was added to four 0.5 mL microfuse tubes. Two aliquots were frozen immediately (0 minute sample). The other two aliquots were incubated at 37° C. for 4 hours along with the RED device.
Following dialysis, an aliquot of 50 μL was removed from each well (both plasma and buffer side) and diluted with equal volume of opposite matrix (dialyzed with the other matrix) to nullify the matrix effect. Similarly, 50 μL of buffer was added to recovery and stability samples. An aliquot of 100 μL was submitted for LC-MS/MS analysis.
A 25 μL aliquot of warfarin and test compounds were crashed with 100 μL of acetonitrile containing internal standard (glipizide for warfarin and test compound) and vortexed for 5 minutes. The samples were centrifuged at 15,000 rpm at 4° C. for 10 min and 100 μL of supernatant was submitted for LCMS/MS analysis. Samples were monitored for parent compound in MRM mode using LC-MS/MS.

Compound: CS(=O)(=O)CCNCc1ccc(-c2ccc3ncnc(Nc4ccc(OCc5cccc(F)c5)c(Cl)c4)c3c2)o1 [Compound 1, lapatinib, reference compound]
effect on endocytosis of transferrin [1]: inhibited endocytosis of transferrin

Compound: CC1(C)OB(O)c2cc(NC(=O)c3ccc(F)cc3C(F)(F)F)ccc21 [SCYX-7158]
pEC50 [9]: 6.10

Compound: CC(=O)CC(c1ccccc1)c1c(O)c2ccccc2oc1=O (stereo not drawn) [Warfarin]
recovery at 4 h, 5 μM (in vitro; pH 7.4): 95% | % compound remaining at 4 h (in vitro; plasma, 4 h, 5 μM): 100% | fraction unbound at 4 h, 5 μM (in vitro; plasma, pH 7.4, % Bound Mean (SD)): 0.156 | fraction unbound at 4 h, 5 μM (in vitro; plasma, pH 7.4, % Bound R1): 0.051 | fraction unbound at 4 h, 5 μM (in vitro; plasma, pH 7.4, % Bound R2): 0.058 | fraction unbound at 4 h, 5 μM (in vitro; plasma, pH 7.4, % Bound R3): 0.059

Compound: Nc1nc(N)nc(Nc2ccc([As]3SCC(CO)S3)cc2)n1 (stereo not drawn) [melarsoprol]
pEC50 [9]: 8.20

Compound: N=C(N)c1ccc(OCCCCCOc2ccc(C(=N)N)cc2)cc1 [pentamidine]
pEC50 [9]: 8.46

Second part, led by results:

Human liver microsomes median CLint: 151.8 µL/min/mg | pEC50 [2]: 6.46 | Male rat hepatocytes median CLint [3]: 37.95 μl/min/1E6 cells | pEC50 (L. major amastigote): 5.80 | pEC50 (T. cruzi): 7.05 | pEC50 (L. major promastigote): 6.04 | pEC50 (P. fal): 7.33
Compound: CN1CCCN(S(=O)(=O)c2ccc(-c3ccc4ncc(C#N)c(Nc5ccc(OCc6cccc(F)c6)c(Cl)c5)c4c3)cc2)CC1 [NEU-924]
CC50 (HepG2 cells): > 15 µM

Human liver microsomes median CLint [4]: 78.87 µL/min/mg | fraction unbound [5]: < 0.01 | Solubility [6]: <1 µM | pEC50 ([2]; Trypanosoma brucei): 5.68 | Male rat hepatocytes median CLint [7]: 13.93 μl/min/1E6 cells | logD (logD): 3.5 | pEC50 (L. major amastigote; Leishmania major): < 5.52 | pEC50 (T. cruzi; Trypanosoma cruzi): 4.31 | pEC50 (L. major promastigote; Leishmania major): 6.70 | pEC50 (P. fal; Plasmodium falciparum): 7.49
Compound: O=S(=O)(c1ccc(-c2ccc3nccc(Nc4ccc(OCc5ccccc5)c(Cl)c4)c3c2)cc1)N1CCOCC1 [NEU-945, N-(4-(Benzyloxy)-3-chlorophenyl)-6-(4-(morpholinosulfonyl)phenyl)quinolin-4-amine]
CC50 (HepG2 cells): > 5 µM

pEC50 (L. major amastigote; Leishmania major): 5.66 | pEC50 (T. cruzi; Trypanosoma cruzi): < 4.30 | pEC50 (L. major promastigote; Leishmania major): < 4.82 | pEC50 (P. fal; Plasmodium falciparum): 5.55
Compound: Fc1cccc(COc2ccc(Nc3nccc4cc(-c5cccc(N6CCOCC6)c5)ccc34)cc2Cl)c1 [NEU-946, N-(3-Chloro-4-((3-fluorobenzyl)oxy)phenyl)-6-(3-morpholinophenyl)isoquinolin-1-amine]
CC50 at 48 h [8]: > 15 µM | inhibition at 5 µM ([2]; Trypanosoma brucei): 12%

pEC50 (L. major amastigote; Leishmania major): 5.22 | pEC50 (T. cruzi; Trypanosoma cruzi): < 4.30 | pEC50 (L. major promastigote; Leishmania major): < 4.82 | pEC50 (P. fal; Plasmodium falciparum): 5.60
Compound: Fc1cccc(COc2ccc(Nc3nccc4ccc(-c5cccc(N6CCOCC6)c5)cc34)cc2Cl)c1 [NEU-947, N-(3-Chloro-4-((3-fluorobenzyl)oxy)phenyl)-7-(3-morpholinophenyl)isoquinolin-1-amine]
CC50 at 48 h [8]: > 15 µM | inhibition at 5 µM ([2]; Trypanosoma brucei): 0.1%

pEC50 ([2]; Trypanosoma brucei): < 5.60 | pEC50 (L. major amastigote; Leishmania major): < 4.82 | pEC50 (T. cruzi; Trypanosoma cruzi): < 4.30 | pEC50 (L. major promastigote; Leishmania major): < 4.82 | pEC50 (P. fal; Plasmodium falciparum): 6.06
Compound: O=S(=O)(c1ccc(-c2ccc3ccnc(Nc4ccc(OCc5ccccc5)c(Cl)c4)c3c2)cc1)N1CCOCC1 [NEU-949, N-(4-(Benzyloxy)-3-chlorophenyl)-7-(4-(morpholinosulfonyl)phenyl)isoquinolin-1-amine]
CC50 at 48 h [8]: > 15 µM

Human liver microsomes median CLint [4]: 142.7 µL/min/mg | fraction unbound [5]: < 0.01 | pEC50 ([2]; Trypanosoma brucei): 7.10 | Male rat hepatocytes median CLint [7]: 20.24 μl/min/1E6 cells | pEC50 (L. major amastigote; Leishmania major): 5.80 | pEC50 (T. cruzi; Trypanosoma cruzi): 6.14 | pEC50 (L. major promastigote; Leishmania major): 6.00 | pEC50 (P. fal; Plasmodium falciparum): 7.72
Compound: CN1CCN(S(=O)(=O)c2ccc(-c3ccc4c(Nc5ccc(OCc6cccc(F)c6)c(Cl)c5)ccnc4c3)cc2)CC1 [NEU-961, N-(3-Chloro-4-((3-fluorobenzyl)oxy)phenyl)-7-(4-((4-methylpiperazin-1-yl)sulfonyl)phenyl)quinolin-4-amine]
CC50 (HepG2 cells): > 4 µM

Human liver microsomes median CLint [4]: 99.32 µL/min/mg | fraction unbound [5]: < 0.01 | Solubility [6]: <1 µM | pEC50 ([2]; Trypanosoma brucei): 6.68 | Male rat hepatocytes median CLint [7]: 36.72 μl/min/1E6 cells | pEC50 (L. major amastigote; Leishmania major): 6.62 | pEC50 (T. cruzi; Trypanosoma cruzi): 4.31 | pEC50 (L. major promastigote; Leishmania major): 5.19 | pEC50 (P. fal; Plasmodium falciparum): 8.52
Compound: CN1CCCN(S(=O)(=O)c2ccc(-c3ccc4c(Nc5ccc(OCc6cccc(F)c6)c(Cl)c5)cnnc4c3)cc2)CC1 [NEU-1017, N-(3-Chloro-4-((3-fluorobenzyl)oxy)phenyl)-7-(4-((4-methyl-1,4-diazepan-1-yl)sulfonyl)phenyl)cinnolin-4-amine]
CC50 (HepG2 cells): 15 µM
